# Data: patent US20220323406A1, “METHODS AND COMPOSITIONS FOR DIFFERENTIATING STEM CELLS” (Massachusetts Institute of Technology, priority 2019, published 2022)
# What was measured:
# [1] = test system: ENR+CD organoids (ISC to Paneth cell differentiation); test: Primary screen: basal (non-stimulated) lysozyme secretion LYZ.NS, 2.5-D 384-well ENR+CD organoid differentiation; assay type: cell-based, mouse
# From the text: (§1) High-throughput screening.
# [2] = test system: ENR+CD organoids (ISC to Paneth cell differentiation); test: Primary screen: CCh-stimulated lysozyme secretion LYZ.S, 2.5-D 384-well ENR+CD organoid differentiation; assay type: cell-based, mouse; details: primary screen
# From the text: as §1
# ENR+CD organoids = test: Primary screen: ATP (CellTiter-Glo 3D, CTG) cell number/viability, 2.5-D 384-well ENR+CD organoids;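 note: compounds given at plating and again on day 3 over a 6-day differentiation from ENR+CV stem-cell-enriched precursors, ATP measured on day 6, plate median as control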
# [3] = primary screen, standard z score, dose 0.08 uM
# [4] = primary screen, standard z score, dose 0.40 uM
# [5] = primary screen, standard z score, dose 2.00 uM
# [6] = primary screen, standard z score, dose 10.00 uM
# [7] = primary screen, dose 0.08 uM, FC relative to plate median
# [8] = primary screen, dose 0.08 uM, standard z score
# [9] = primary screen, dose 0.40 uM, FC relative to plate median
# [10] = primary screen, dose 0.40 uM, standard z score
# [11] = primary screen, dose 2.00 uM, FC relative to plate median
# [12] = primary screen, dose 2.00 uM, standard z score
# [13] = primary screen, dose 10.00 uM, FC relative to plate median
# [14] = primary screen, dose 10.00 uM, standard z score
# [15] = dose 0.08 uM, FC relative to plate median
# [16] = dose 0.40 uM, FC relative to plate median
# [17] = dose 2.00 uM, FC relative to plate median
# [18] = dose 10.00 uM, FC relative to plate median
structure (smiles),measurement,setting,value
OC[C@H]1O[C@@H](c2ccc(Cl)c(Cc3ccc(O[C@H]4CCOC4)cc3)c2)[C@H](O)[C@@H](O)[C@@H]1O [Empagliflozin (BI 10773)],Dose.FC.LYZ.NS,"[1]; primary screen, dose 0.08 uM",−0.006 log2 fold change
same,Dose.FC.LYZ.NS,"[1]; primary screen, dose 0.40 uM",−0.034 log2 fold change
same,Dose.FC.LYZ.NS,"[1]; primary screen, dose 2.00 uM",−0.009 log2 fold change
same,Dose.FC.LYZ.NS,"[1]; primary screen, dose 10.00 uM",0.017 log2 fold change
same,Z.LYZ.NS,[1]; [3],−0.052
same,Z.LYZ.NS,[1]; [4],−0.294
same,Z.LYZ.NS,[1]; [5],−0.081
same,Z.LYZ.NS,[1]; [6],0.144
same,Dose.FC.LYZ.S,[2]; dose 0.08 uM,−0.051 log2 fold change
same,Dose.FC.LYZ.S,[2]; dose 0.40 uM,−0.055 log2 fold change
same,Dose.FC.LYZ.S,[2]; dose 2.00 uM,−0.103 log2 fold change
same,Dose.FC.LYZ.S,[2]; dose 10.00 uM,−0.022 log2 fold change
same,Dose.FC.CTG,"ENR+CD organoids; primary screen, dose 0.08 uM",−0.296 log2 fold change
same,Dose.FC.CTG,"ENR+CD organoids; primary screen, dose 0.40 uM",−0.075 log2 fold change
same,Dose.FC.CTG,"ENR+CD organoids; primary screen, dose 2.00 uM",−0.192 log2 fold change
same,Dose.FC.CTG,"ENR+CD organoids; primary screen, dose 10.00 uM",−0.134 log2 fold change
same,Z.CTG,ENR+CD organoids; [3],−0.707
same,Z.CTG,ENR+CD organoids; [4],−0.178
same,Z.CTG,ENR+CD organoids; [5],−0.458
same,Z.CTG,ENR+CD organoids; [6],−0.320
CCCCc1nc(Cl)c(CO)n1Cc1ccc(-c2ccccc2-c2nnn[n-]2)cc1.[K+] [Losartan Potassium (DuP 753)],Dose.FC.LYZ.NS (log2 fold change),"[1]; primary screen, dose 0.08 uM",0.052
same,Z.LYZ.NS (standard z score),"[1]; primary screen, dose 0.08 uM",0.449
same,Dose.FC.LYZ.NS (log2 fold change),"[1]; primary screen, dose 0.40 uM",0.038
same,Z.LYZ.NS (standard z score),"[1]; primary screen, dose 0.40 uM",0.329
same,Dose.FC.LYZ.NS (log2 fold change),"[1]; primary screen, dose 2.00 uM",−0.042
same,Z.LYZ.NS (standard z score),"[1]; primary screen, dose 2.00 uM",−0.362
same,Dose.FC.LYZ.NS (log2 fold change),"[1]; primary screen, dose 10.00 uM",0.062
same,Z.LYZ.NS (standard z score),"[1]; primary screen, dose 10.00 uM",0.540
same,Dose.FC.LYZ.S (log2 fold change),[2]; dose 0.08 uM,−0.017
same,Dose.FC.LYZ.S (log2 fold change),[2]; dose 0.40 uM,0.027
same,Dose.FC.LYZ.S (log2 fold change),[2]; dose 2.00 uM,−0.080
same,Dose.FC.LYZ.S (log2 fold change),[2]; dose 10.00 uM,−0.025
same,Dose.FC.CTG (log2 fold change),"ENR+CD organoids; primary screen, dose 0.08 uM",−0.152
same,Z.CTG (standard z score),"ENR+CD organoids; primary screen, dose 0.08 uM",−0.362
same,Dose.FC.CTG (log2 fold change),"ENR+CD organoids; primary screen, dose 0.40 uM",−0.175
same,Z.CTG (standard z score),"ENR+CD organoids; primary screen, dose 0.40 uM",−0.418
same,Dose.FC.CTG (log2 fold change),"ENR+CD organoids; primary screen, dose 2.00 uM",−0.081
same,Z.CTG (standard z score),"ENR+CD organoids; primary screen, dose 2.00 uM",−0.193
same,Dose.FC.CTG (log2 fold change),"ENR+CD organoids; primary screen, dose 10.00 uM",−0.137
same,Z.CTG (standard z score),"ENR+CD organoids; primary screen, dose 10.00 uM",−0.328
Cc1ccc(S(=O)(=O)Cc2nc(-c3ccc(C(=O)NCc4cccnc4)cc3)oc2C)cc1 [STF-118804],Dose.FC.LYZ.NS,[1]; [7],−0.155 log2 fold change
same,Z.LYZ.NS,[1]; [8],−1.349
same,Dose.FC.LYZ.NS,[1]; [9],−0.210 log2 fold change
same,Z.LYZ.NS,[1]; [10],−1.824
same,Dose.FC.LYZ.NS,[1]; [11],−0.172 log2 fold change
same,Z.LYZ.NS,[1]; [12],−1.502
same,Dose.FC.LYZ.NS,[1]; [13],−0.177 log2 fold change
same,Z.LYZ.NS,[1]; [14],−1.541
same,Dose.FC.LYZ.S,[2]; [15],−0.257 log2 fold change
same,Dose.FC.LYZ.S,[2]; [16],−0.212 log2 fold change
same,Dose.FC.LYZ.S,[2]; [17],−0.271 log2 fold change
same,Dose.FC.LYZ.S,[2]; [18],−0.300 log2 fold change
same,Dose.FC.CTG,ENR+CD organoids; [7],−0.151 log2 fold change
same,Z.CTG,ENR+CD organoids; [8],−0.360
same,Dose.FC.CTG,ENR+CD organoids; [9],−1.401 log2 fold change
same,Z.CTG,ENR+CD organoids; [10],−3.346
same,Dose.FC.CTG,ENR+CD organoids; [11],−0.916 log2 fold change
same,Z.CTG,ENR+CD organoids; [12],−2.189
same,Dose.FC.CTG,ENR+CD organoids; [13],−1.338 log2 fold change
same,Z.CTG,ENR+CD organoids; [14],−3.195
CN1CC(=O)N2[C@H](c3ccc4c(c3)OCO4)c3[nH]c4ccccc4c3C[C@@H]2C1=O [Tadalafil],Dose.FC.LYZ.NS,[1]; [7],0.102 log2 fold change
same,Z.LYZ.NS,[1]; [8],0.887
same,Dose.FC.LYZ.NS,[1]; [9],0.027 log2 fold change
same,Z.LYZ.NS,[1]; [10],0.233
same,Dose.FC.LYZ.NS,[1]; [11],0.130 log2 fold change
same,Z.LYZ.NS,[1]; [12],1.128
same,Dose.FC.LYZ.NS,[1]; [13],0.061 log2 fold change
same,Z.LYZ.NS,[1]; [14],0.534
same,Dose.FC.LYZ.S,[2]; [15],0.091 log2 fold change
same,Dose.FC.LYZ.S,[2]; [16],0.095 log2 fold change
same,Dose.FC.LYZ.S,[2]; [17],0.223 log2 fold change
same,Dose.FC.LYZ.S,[2]; [18],0.148 log2 fold change
same,Dose.FC.CTG,ENR+CD organoids; [7],−0.019 log2 fold change
same,Dose.FC.CTG,ENR+CD organoids; [9],0.361 log2 fold change
same,Dose.FC.CTG,ENR+CD organoids; [11],0.436 log2 fold change
same,Dose.FC.CTG,ENR+CD organoids; [13],0.270 log2 fold change
